Test results from PubChem BioAssay (NCI).
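Tested at 5 concentrations; 48 h exposure; 96-well plates; endpoints linearly interpolated, else capped at highest concentration. The concentration for full growth arrest is given as TGI.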

Tests used:
Experiment in all cases: NCI anticancer screen, dose series, 48 h
MDA-MB-435 = tested on: MDA-MB-435
IGROV1 ovarian = tested on: IGROV1 ovarian
ACHN renal = tested on: ACHN renal
OVCAR-4 ovarian = tested on: OVCAR-4 ovarian
COLO 205 colon = tested on: COLO 205 colon
MDA-N = tested on: MDA-N
HCC-2998 colon = tested on: HCC-2998 colon
NCI/ADR-RES ovarian = tested on: NCI/ADR-RES ovarian
OVCAR-8 ovarian = tested on: OVCAR-8 ovarian
A498 renal = tested on: A498 renal
TK-10 renal = tested on: TK-10 renal
SNB-75 CNS = tested on: SNB-75 CNS
SF-268 CNS = tested on: SF-268 CNS
786-0 renal = tested on: 786-0 renal
U251 CNS = tested on: U251 CNS
NCI-H226 lung = tested on: NCI-H226 lung
RPMI-8226 leukemia = tested on: RPMI-8226 leukemia
M14 melanoma = tested on: M14 melanoma
T-47D breast = tested on: T-47D breast
HS 578T breast = tested on: HS 578T breast
PC-3 prostate = tested on: PC-3 prostate
NCI-H522 lung = tested on: NCI-H522 lung
HOP-92 NSCLC = tested on: HOP-92 NSCLC
MOLT-4 leukemia = tested on: MOLT-4 leukemia
SW-620 colon = tested on: SW-620 colon
A549 NSCLC = tested on: A549 NSCLC
KM12 colon = tested on: KM12 colon
OVCAR-5 ovarian = tested on: OVCAR-5 ovarian
HCT-116 colon = tested on: HCT-116 colon
SF-295 CNS = tested on: SF-295 CNS
LOX IMVI melanoma = tested on: LOX IMVI melanoma
SK-OV-3 ovarian = tested on: SK-OV-3 ovarian
HL-60(TB) leukemia = tested on: HL-60(TB) leukemia
CAKI-1 renal = tested on: CAKI-1 renal
HCT-15 colon = tested on: HCT-15 colon
CCRF-CEM leukemia = tested on: CCRF-CEM leukemia
HT29 colon = tested on: HT29 colon
UACC-62 melanoma = tested on: UACC-62 melanoma
MCF7 breast = tested on: MCF7 breast
SR leukemia = tested on: SR leukemia
BT-549 breast = tested on: BT-549 breast
SNB-19 CNS = tested on: SNB-19 CNS
SK-MEL-5 melanoma = tested on: SK-MEL-5 melanoma
K-562 leukemia = tested on: K-562 leukemia
UACC-257 melanoma = tested on: UACC-257 melanoma
SF-539 CNS = tested on: SF-539 CNS
OVCAR-3 ovarian = tested on: OVCAR-3 ovarian
SK-MEL-2 melanoma = tested on: SK-MEL-2 melanoma
RXF 393 renal = tested on: RXF 393 renal
MALME-3M melanoma = tested on: MALME-3M melanoma
MDA-MB-231 breast = tested on: MDA-MB-231 breast
HOP-62 NSCLC = tested on: HOP-62 NSCLC
EKVX NSCLC = tested on: EKVX NSCLC
NCI-H23 lung = tested on: NCI-H23 lung
SK-MEL-28 melanoma = tested on: SK-MEL-28 melanoma
DU-145 prostate = tested on: DU-145 prostate
NCI-H460 lung = tested on: NCI-H460 lung
UO-31 renal = tested on: UO-31 renal
SN12C renal = tested on: SN12C renal

`CCC[C@H](C)[C@H]1NC(=O)[C@@H](NC(=O)[C@@H](CC(C)C)N(C)C(=O)C2CCCN2C(=O)[C@H](C)O)[C@@H](C)OC(=O)[C@H](CC(C)C)N(C)C(=O)[C@@H]2CCCN2C(=O)[C@H](CC(C)C)NC(=O)[C@@H](C)C(=O)[C@H](C(C)C)OC(=O)C[C@@H]1O` (some centres not stated) showed a TGI (MDA-MB-435) of 5.19 nM, a TGI (IGROV1 ovarian) of 25.6 nM and a TGI (ACHN renal) of 68.9 nM. It also gave a TGI (OVCAR-4 ovarian) of 11.7 nM, a TGI (COLO 205 colon) of less than 2.5 nM and a TGI (MDA-N) of 20.5 nM. For the same compound, the TGI (HCC-2998 colon) was 5.51 nM, the TGI (NCI/ADR-RES ovarian) was 2620 nM and the TGI (OVCAR-8 ovarian) was 48.4 nM. It also gave a TGI (A498 renal) of 37.6 nM, a TGI (TK-10 renal) of 94.6 nM and a TGI (SNB-75 CNS) of 24.6 nM. The TGI (SF-268 CNS) was 30.3 nM, the TGI (786-0 renal) was 15.7 nM and the TGI (U251 CNS) was less than 2.5 nM. It also gave a TGI (NCI-H226 lung) of 62.2 nM, a TGI (RPMI-8226 leukemia) of 76.8 nM and a TGI (M14 melanoma) of 84.8 nM. For the same compound, the TGI (T-47D breast) was 250 nM, the TGI (HS 578T breast) was 1040 nM and the TGI (PC-3 prostate) was 16.9 nM. The TGI (NCI-H522 lung) was 6.09 nM, the TGI (HOP-92 NSCLC) was 9.3 nM and the TGI (MOLT-4 leukemia) was 1580 nM. The TGI (SW-620 colon) was 5.24 nM, the TGI (A549 NSCLC) was 131 nM and the TGI (KM12 colon) was 1270 nM. For the same compound, the TGI (OVCAR-5 ovarian) was 34.6 nM, the TGI (HCT-116 colon) was 3.56 nM and the TGI (SF-295 CNS) was 53.6 nM. For the same compound, the TGI (LOX IMVI melanoma) was 3.09 nM, the TGI (SK-OV-3 ovarian) was 140 nM and the TGI (HL-60(TB) leukemia) was 108 nM. For the same compound, the TGI (CAKI-1 renal) was 1540 nM, the TGI (HCT-15 colon) was 1440 nM and the TGI (CCRF-CEM leukemia) was 141 nM. It also gave a TGI (HT29 colon) of 10.2 nM, a TGI (UACC-62 melanoma) of 2.7 nM and a TGI (MCF7 breast) of 250 nM. It also gave a TGI (SR leukemia) of 42.2 nM, a TGI (BT-549 breast) of 25 nM and a TGI (SNB-19 CNS) of 60 nM. For the same compound, the TGI (SK-MEL-5 melanoma) was 3.81 nM, the TGI (K-562 leukemia) was 3260 nM and the TGI (UACC-257 melanoma) was 20.5 nM. It also gave a TGI (SF-539 CNS) of 10.2 nM, a TGI (OVCAR-3 ovarian) of 11.7 nM and a TGI (SK-MEL-2 melanoma) of 4.68 nM. For the same compound, the TGI (RXF 393 renal) was 16 nM, the TGI (MALME-3M melanoma) was less than 2.5 nM and the TGI (MDA-MB-231 breast) was 8.55 nM. For the same compound, the TGI (HOP-62 NSCLC) was 8.42 nM, the TGI (EKVX NSCLC) was 339 nM and the TGI (NCI-H23 lung) was 4.47 nM. It also gave a TGI (SK-MEL-28 melanoma) of less than 2.5 nM, a TGI (DU-145 prostate) of 14.3 nM and a TGI (NCI-H460 lung) of 28.9 nM. It also gave a TGI (UO-31 renal) of 128 nM.
For `O=C1/C(=C/c2ccc([N+](=O)[O-])cc2)CNC/C1=C\c1ccc([N+](=O)[O-])cc1`, the TGI (MDA-MB-435) was 23900 nM, the TGI (IGROV1 ovarian) was 4780 nM and the TGI (ACHN renal) was 25300 nM. For the same compound, the TGI (OVCAR-4 ovarian) was greater than 50900 nM, the TGI (COLO 205 colon) was 28300 nM and the TGI (MDA-N) was 25500 nM. It also gave a TGI (HCC-2998 colon) of 23400 nM, a TGI (NCI/ADR-RES ovarian) of 26300 nM and a TGI (OVCAR-8 ovarian) of 8360 nM. For the same compound, the TGI (A498 renal) was 37300 nM, the TGI (TK-10 renal) was greater than 95800 nM and the TGI (SNB-75 CNS) was 17000 nM. It also gave a TGI (SF-268 CNS) of 4470 nM, a TGI (786-0 renal) of 3180 nM and a TGI (U251 CNS) of 1670 nM. For the same compound, the TGI (NCI-H226 lung) was greater than 57500 nM, the TGI (RPMI-8226 leukemia) was 2750 nM and the TGI (M14 melanoma) was 28700 nM. For the same compound, the TGI (T-47D breast) was greater than 81300 nM, the TGI (HS 578T breast) was greater than 64900 nM and the TGI (PC-3 prostate) was 21700 nM. It also gave a TGI (NCI-H522 lung) of 9400 nM, a TGI (HOP-92 NSCLC) of 59000 nM and a TGI (MOLT-4 leukemia) greater than 38000 nM. It also gave a TGI (SW-620 colon) of 1780 nM, a TGI (A549 NSCLC) greater than 70700 nM and a TGI (KM12 colon) of 4410 nM. For the same compound, the TGI (OVCAR-5 ovarian) was greater than 69600 nM, the TGI (SN12C renal) was 15500 nM and the TGI (HCT-116 colon) was 1970 nM. It also gave a TGI (SF-295 CNS) of 34100 nM, a TGI (LOX IMVI melanoma) of 5930 nM and a TGI (SK-OV-3 ovarian) greater than 100000 nM. The TGI (HL-60(TB) leukemia) was 10000 nM, the TGI (CAKI-1 renal) was 4670 nM and the TGI (HCT-15 colon) was 3060 nM. It also gave a TGI (CCRF-CEM leukemia) of 2970 nM, a TGI (HT29 colon) of 3570 nM and a TGI (UACC-62 melanoma) of 29500 nM. The TGI (MCF7 breast) was greater than 100000 nM, the TGI (SR leukemia) was 1150 nM and the TGI (BT-549 breast) was 7730 nM. The TGI (SNB-19 CNS) was 10600 nM, the TGI (SK-MEL-5 melanoma) was 25300 nM and the TGI (K-562 leukemia) was 1210 nM. For the same compound, the TGI (UACC-257 melanoma) was greater than 100000 nM, the TGI (SF-539 CNS) was 5590 nM and the TGI (OVCAR-3 ovarian) was 9610 nM. It also gave a TGI (SK-MEL-2 melanoma) greater than 100000 nM, a TGI (RXF 393 renal) of 25100 nM and a TGI (MALME-3M melanoma) greater than 100000 nM. It also gave a TGI (MDA-MB-231 breast) of 20200 nM, a TGI (HOP-62 NSCLC) of 15900 nM and a TGI (EKVX NSCLC) of 33900 nM. It also gave a TGI (NCI-H23 lung) of 9770 nM, a TGI (SK-MEL-28 melanoma) of 5490 nM and a TGI (DU-145 prostate) of 35600 nM. The TGI (NCI-H460 lung) was 12700 nM and the TGI (UO-31 renal) was 19600 nM.
